In patent publication US7553966B2, “Glucocorticoid mimetics, methods of making them, pharmaceutical compositions, and uses thereof” (Boehringer Ingelheim Pharmaceuticals, Inc., priority 2002, dated 2009):

Target: T1, human glucocorticoid receptor (GR) complex (Homo sapiens, UniProt P04150)
T1 construct: made in house; host or cells: insect expression system (baculovirus lysate)
T1 sequence (P04150 1-777): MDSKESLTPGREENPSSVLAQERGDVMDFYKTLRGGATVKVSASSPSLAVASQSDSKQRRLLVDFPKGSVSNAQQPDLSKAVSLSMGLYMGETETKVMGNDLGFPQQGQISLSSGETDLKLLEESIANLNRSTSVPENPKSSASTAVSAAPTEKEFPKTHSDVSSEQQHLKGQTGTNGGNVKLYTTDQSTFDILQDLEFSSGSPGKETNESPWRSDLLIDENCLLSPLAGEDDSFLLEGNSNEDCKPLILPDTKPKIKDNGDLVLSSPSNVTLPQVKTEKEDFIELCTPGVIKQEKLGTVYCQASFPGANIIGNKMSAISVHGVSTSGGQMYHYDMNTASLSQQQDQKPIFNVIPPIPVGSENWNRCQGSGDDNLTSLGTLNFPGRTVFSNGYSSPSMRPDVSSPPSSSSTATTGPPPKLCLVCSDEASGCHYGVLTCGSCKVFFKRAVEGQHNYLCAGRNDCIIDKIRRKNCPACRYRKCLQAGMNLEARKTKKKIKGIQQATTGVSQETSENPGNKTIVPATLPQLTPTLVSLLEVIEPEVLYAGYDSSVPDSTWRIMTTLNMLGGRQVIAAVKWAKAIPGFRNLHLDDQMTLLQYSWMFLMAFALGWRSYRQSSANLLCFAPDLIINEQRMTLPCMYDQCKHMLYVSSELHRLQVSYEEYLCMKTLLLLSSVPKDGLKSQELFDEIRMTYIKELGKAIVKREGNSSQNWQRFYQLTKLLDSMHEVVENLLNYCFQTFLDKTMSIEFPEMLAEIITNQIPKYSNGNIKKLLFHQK
Experiment: Glucocorticoid Receptor Competitive Binding Assay (fluorescence polarization, TAMRA-labeled dexamethasone probe)
Details: qualitative statement; competition with TAMRA-labeled dexamethasone
Procedure: Compounds of the invention were evaluated for binding to the steroid receptor by a fluorescence polarization competitive binding assay.
A. Glucocorticoid Receptor Competitive Binding Assay
Step 1. Characterization of the Fluorescent Probe
The wavelengths for maximum excitation and emission of the fluorescent probe should first be measured. An example of such a probe is rhodamine (TAMRA)-labeled dexamethasone.
The affinity of the probe for the steroid receptor was then determined in a titration experiment. The fluorescence polarization value of the probe in assay buffer was measured on an SLM-8100 fluorometer using the excitation and emission maximum values described above. Aliquots of expression vector lysate were added and fluorescence polarization was measured after each addition until no further change in polarization value was observed. Non-linear least squares regression analysis was used to calculate the dissociation constant of the probe from the polarization values obtained for lysate binding to the probe.
Step 2. Screening for Inhibitors of Probe Binding
This assay uses fluorescence polarization (FP) to quantitate the ability of test compounds to compete with tetramethyl rhodamine (TAMRA)-labeled dexamethasone for binding to a human glucocorticoid receptor (GR) complex prepared from an insect expression system. The assay buffer was: 10 mM TES, 50 mM KCl, 20 mM Na2MoO4. 2H2O, 1.5 mM EDTA, 0.04% w/v CHAPS, 10% v/v glycerol, 1 mM dithiothreitol, pH 7.4. Test compounds were dissolved to 1 mM in neat DMSO and then further diluted to 10× assay concentration in assay buffer supplemented with 10% v/v DMSO. Test compounds were serially diluted at 10× assay concentrations in 10% DMSO-containing buffer in 96-well polypropylene plates. […] Positive controls were reaction mixtures containing no test compound; negative controls (blanks) were reaction mixtures containing 0.7 μM to 2 μM dexamethasone. […] IC50 values were determined by iterative non-linear curve fitting of the FP signal data to a 4-parameter logistic equation.

Structure (SMILES)	activity in the GR binding assay
CC(C)(CC(O)(Cc1ccnc2ccccc12)C(F)(F)F)c1cccc(O)c1 (stereo not shown) [3-(4,4,4-Trifluoro-3-hydroxy-1,1-dimethyl-3-quinolin-4-ylmethylbutyl)phenol]	potent activity
CC(C)(CC(O)(Cc1cc2cc(C#N)ccc2[nH]1)C(F)(F)F)c1cccc2c1OCC2 (stereo not shown) [2-[4-(2,3-Dihydrobenzofuran-7-yl)-2-hydroxy-4-methyl-2-trifluoromethylpentyl]-1H-indole-5-carbonitrile]	potent activity
COC(=O)c1ccc2[nH]c(CC(O)(CC(C)(C)c3cc(F)ccc3OC)C(F)(F)F)cc2c1 (stereo not shown) [2-[4-(5-Fluoro-2-methoxyphenyl)-2-hydroxy-4-methyl-2-trifluoromethylpentyl]-1H-indole-5-carboxylic acid methyl ester]	potent activity
COc1ccc(F)cc1C(C)(C)CC(O)(Cc1ccnc(Cl)c1)C(F)(F)F (stereo not shown) [1,1,1-Trifluoro-4-(5-fluoro-2-methoxyphenyl)-4-methyl-2-(2-chloropyridin-4-ylmethyl)pentan-2-ol]	potent activity
CC(C)(CC(O)(Cc1ccnc2ccccc12)C(F)(F)F)c1cccc2c1OCCC2 (stereo not shown) [4-Chroman-8-yl-1,1,1-trifluoro-4-methyl-2-quinolin-4-ylmethylpentan-2-ol]	potent activity
Cc1c(CC(O)(CC(C)(C)c2cc(F)ccc2O)C(F)(F)F)[nH]c2cnccc12 (stereo not shown) [4-Fluoro-2-[4,4,4-trifluoro-3-hydroxy-1,1-dimethyl-3-(3-methyl-1H-pyrrolo[2,3-c]pyridin-2-ylmethyl)butyl]phenol]	potent activity
COc1ccc(F)cc1C(C)(C)CC(O)(Cn1ccnc1-c1ccccc1)C(F)(F)F (stereo not shown) [2-(2-Phenylimidazol-1-ylmethyl)-1,1,1-trifluoro-4-(5-fluoro-2-methoxyphenyl)-4-methylpentan-2-ol]	potent activity
CC(C)(CC(O)(Cc1ccnc2ccccc12)C(F)(F)F)c1cc(Br)cc2c1OCCC2 (stereo not shown) [4-(6-Bromochroman-8-yl)-1,1,1-trifluoro-4-methyl-2-quinolin-4-ylmethylpentan-2-ol]	potent activity
CC(C)(CC(O)(Cc1ccnc2ccccc12)C(F)(F)F)c1ccsc1 (stereo not shown) [1,1,1-Trifluoro-4-methyl-2-quinolin-4-ylmethyl-4-thiophen-3-ylpentan-2-ol]	potent activity
COc1ccc(F)cc1C(C)(C)CC(O)(Cc1nc2ccccc2[nH]1)C(F)(F)F (stereo not shown) [2-(1H-Benzimidazol-2-ylmethyl)-1,1,1-trifluoro-4-(5-fluoro-2-methoxyphenyl)-4-methylpentan-2-ol]	potent activity
CC(C)(CC(O)(Cc1cc(Cl)nc2ccccc12)C(F)(F)F)c1cc(F)ccc1O (stereo not shown) [1,1,1-Trifluoro-4-(5-fluoro-2-hydroxyphenyl)-4-methyl-2-(2-chloroquinolin-4-ylmethyl)pentan-2-ol]	potent activity
CC(C)(CC(O)(Cc1cc2cccc(F)c2[nH]1)C(F)(F)F)c1ccc(F)cc1O (stereo not shown) [5-Fluoro-2-[4,4,4-trifluoro-3-(7-fluoro-1H-indol-2-ylmethyl)-3-hydroxy-1,1-dimethylbutyl]phenol]	potent activity
CC(C)(CC(O)(Cc1[nH]c2ccccc2c1C#N)C(F)(F)F)c1ccc(F)cc1 (stereo not shown) [2-[4-(4-Fluorophenyl)-2-hydroxy-4-methyl-2-trifluoromethylpentyl]-1H-indole-3-carbonitrile]	potent activity
CC(C)(CC(O)(Cc1[nH]c2ccccc2c1C#N)C(F)(F)F)c1ccccc1 (stereo not shown) [2-(2-Hydroxy-4-methyl-4-phenyl-2-trifluoromethylpentyl)-1H-indole-3-carbonitrile]	potent activity
COc1ccc(F)cc1C(C)(C)CC(O)(Cc1cc2cccnc2[nH]1)C(F)(F)F (stereo not shown) [1,1,1-Trifluoro-4-(5-fluoro-2-methoxyphenyl)-4-methyl-2-(1H-pyrrolo[2,3-b]pyridin-2-ylmethyl)pentan-2-ol]	potent activity
COc1ccc(F)cc1C(C)(C)CC(O)(Cc1cc2ccccc2[nH]1)CC1CC1 (stereo not shown) [1-Cyclopropyl-4-(5-fluoro-2-methoxyphenyl)-2-(indol-2-ylmethyl)-4-methylpentan-2-ol]	potent activity
CC(C)(CC(O)(Cc1ccnc2ccccc12)C(F)(F)F)c1ccc2ccccc2c1O (stereo not shown) [2-(4,4,4-Trifluoro-3-hydroxy-1,1-dimethyl-3-quinolin-4-ylmethylbutyl)naphthalen-1-ol]	potent activity
COc1cccc(C(C)(C)CC(O)(Cc2cc3cc(C(F)(F)F)ccc3[nH]2)C(F)(F)F)c1 (stereo not shown) [1,1,1-Trifluoro-4-(3-methoxyphenyl)-4-methyl-2-(5-trifluoromethyl-1H-indol-2-ylmethyl)pentan-2-ol]	potent activity
CC(C)(CC(O)(Cc1cc2cnccc2[nH]1)C(F)(F)F)c1cccc(F)c1 (stereo not shown) [1,1,1-Trifluoro-4-(3-fluorophenyl)-4-methyl-2-(1H-pyrrolo[3,2-c]pyridin-2-ylmethyl)pentan-2-ol]	potent activity
COc1ccc(F)cc1C(C)(C)CC(O)(Cc1nc2ccccc2[nH]1)C(C)(C)C (stereo not shown) [5-(5-Fluoro-2-methoxyphenyl)-3-(benzimidazol-2-ylmethyl)-2,2,5-trimethylhexan-3-ol]	potent activity
CC(C)(CC(O)(Cc1cc2ccncc2[nH]1)C(F)(F)F)c1ccc(F)cc1 (stereo not shown) [1,1,1-Trifluoro-4-(4-fluorophenyl)-4-methyl-2-(1H-pyrrolo[2,3-c]pyridin-2-ylmethyl)pentan-2-ol]	potent activity
CC(C)(CC(O)(Cc1cc2ccncc2[nH]1)C(F)(F)F)c1cc(F)cc2c1OCC2 (stereo not shown) [1,1,1-Trifluoro-4-(5-fluoro-2,3-dihydrobenzofuran-7-yl)-4-methyl-2-(1H-pyrrolo[2,3-c]pyridin-2-ylmethyl)pentan-2-ol]	potent activity
CC(C)(CC(O)(Cc1cc2cccc(F)c2[nH]1)C(F)(F)F)c1cc(F)ccc1O (stereo not shown) [4-Fluoro-2-[4,4,4-trifluoro-3-(7-fluoro-1H-indol-2-ylmethyl)-3-hydroxy-1,1-dimethylbutyl]phenol]	potent activity
COc1ccc(F)cc1C(C)(C)CC(O)(Cc1cc2ccccc2[nH]1)C(C)C (stereo not shown) [5-(5-Fluoro-2-methoxyphenyl)-3-(indol-2-ylmethyl)-2,5-dimethylhexan-3-ol]	potent activity
CC(C)(CC(O)(Cc1[nH]c2ccccc2c1C#N)C(F)(F)F)c1cccc2c1OCC2 (stereo not shown)	potent activity
CC(C)(CC(O)(Cc1cc2ccccc2[nH]1)C(F)(F)F)c1ccccc1 (stereo not shown) [1,1,1-Trifluoro-2-(1H-indol-2-ylmethyl)-4-methyl-4-phenylpentan-2-ol]	potent activity
CC(C)(CC(O)(Cc1cc2ccccc2[nH]1)C(F)(F)F)c1ccc2ccccc2c1 (stereo not shown) [1,1,1-Trifluoro-2-(1H-indol-2-ylmethyl)-4-methyl-4-naphthalen-2-ylpentan-2-ol]	potent activity
CC(C)(CC(O)(Cc1cc2ccncc2[nH]1)C(F)(F)F)c1cccc(F)c1 (stereo not shown) [1,1,1-Trifluoro-4-(3-fluorophenyl)-4-methyl-2-(1H-pyrrolo[2,3-c]pyridin-2-ylmethyl)pentan-2-ol]	potent activity
